# Where two headings read alike, the source gives them in different places. Marks after values point to notes of the source that are not given here.
# What was measured:
# [1] = biological target: T1, CHRM1 (Homo sapiens, UniProt P11229); details: Table 2, CHRM1; accurate to ±20%
# T1 sequence (P11229 1-460): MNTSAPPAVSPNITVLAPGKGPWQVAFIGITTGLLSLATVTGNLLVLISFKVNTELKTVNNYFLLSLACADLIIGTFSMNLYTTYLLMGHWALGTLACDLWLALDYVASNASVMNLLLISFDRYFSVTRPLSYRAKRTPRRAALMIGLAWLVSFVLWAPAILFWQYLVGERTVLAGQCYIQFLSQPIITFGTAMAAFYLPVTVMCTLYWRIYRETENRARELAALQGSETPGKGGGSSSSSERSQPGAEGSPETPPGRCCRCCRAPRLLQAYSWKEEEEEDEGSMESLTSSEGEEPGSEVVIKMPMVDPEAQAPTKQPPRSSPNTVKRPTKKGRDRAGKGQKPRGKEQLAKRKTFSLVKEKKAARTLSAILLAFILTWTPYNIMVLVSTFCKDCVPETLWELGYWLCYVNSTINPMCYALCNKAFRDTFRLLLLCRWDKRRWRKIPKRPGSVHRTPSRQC
# [2] = biological target: T2, ADRA1A (Homo sapiens, UniProt P35348); details: Table 2, ADRA1A; accurate to ±20%
# T2 sequence (P35348 1-466): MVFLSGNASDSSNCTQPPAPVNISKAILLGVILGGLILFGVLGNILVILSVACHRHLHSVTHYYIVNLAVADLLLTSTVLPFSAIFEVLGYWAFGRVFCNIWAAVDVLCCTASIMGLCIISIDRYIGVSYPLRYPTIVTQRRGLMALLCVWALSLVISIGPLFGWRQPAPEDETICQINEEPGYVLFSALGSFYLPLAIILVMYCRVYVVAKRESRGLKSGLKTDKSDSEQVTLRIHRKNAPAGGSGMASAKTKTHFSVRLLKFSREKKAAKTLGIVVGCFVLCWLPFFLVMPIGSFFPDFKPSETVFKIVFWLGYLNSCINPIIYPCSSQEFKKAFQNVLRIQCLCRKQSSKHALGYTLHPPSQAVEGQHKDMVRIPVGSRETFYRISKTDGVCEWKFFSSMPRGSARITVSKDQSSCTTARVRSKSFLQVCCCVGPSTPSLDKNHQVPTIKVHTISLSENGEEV
# [3] = biological target: SLC6A2 (Homo sapiens, UniProt P23975); details: Table 2, SLC6A2; accurate to ±20%
# [4] = biological target: SLC18A2 (Homo sapiens, UniProt Q05940); test: transporter inhibition, SLC18A2; format: biochemical; details: Table 2, SLC18A2; accurate to ±20%
# Chain of SLC18A2 (Q05940 whole entry, species assumed): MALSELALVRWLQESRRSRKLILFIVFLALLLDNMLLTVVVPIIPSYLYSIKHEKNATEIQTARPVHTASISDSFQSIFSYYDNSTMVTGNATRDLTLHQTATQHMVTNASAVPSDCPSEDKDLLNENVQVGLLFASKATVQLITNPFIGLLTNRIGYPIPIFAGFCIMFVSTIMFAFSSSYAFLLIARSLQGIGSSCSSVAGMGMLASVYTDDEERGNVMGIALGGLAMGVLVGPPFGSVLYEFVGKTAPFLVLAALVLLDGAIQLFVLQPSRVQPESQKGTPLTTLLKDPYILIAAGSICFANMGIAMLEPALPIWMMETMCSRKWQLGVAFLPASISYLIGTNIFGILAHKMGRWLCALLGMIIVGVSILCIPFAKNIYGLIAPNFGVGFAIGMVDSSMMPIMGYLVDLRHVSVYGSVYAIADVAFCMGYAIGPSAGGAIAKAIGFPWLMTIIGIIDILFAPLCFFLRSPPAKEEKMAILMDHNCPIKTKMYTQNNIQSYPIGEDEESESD
# [5] = biological target: hERG ion channel (Homo sapiens, UniProt Q12809)
# Chain of hERG ion channel (Q12809 whole entry): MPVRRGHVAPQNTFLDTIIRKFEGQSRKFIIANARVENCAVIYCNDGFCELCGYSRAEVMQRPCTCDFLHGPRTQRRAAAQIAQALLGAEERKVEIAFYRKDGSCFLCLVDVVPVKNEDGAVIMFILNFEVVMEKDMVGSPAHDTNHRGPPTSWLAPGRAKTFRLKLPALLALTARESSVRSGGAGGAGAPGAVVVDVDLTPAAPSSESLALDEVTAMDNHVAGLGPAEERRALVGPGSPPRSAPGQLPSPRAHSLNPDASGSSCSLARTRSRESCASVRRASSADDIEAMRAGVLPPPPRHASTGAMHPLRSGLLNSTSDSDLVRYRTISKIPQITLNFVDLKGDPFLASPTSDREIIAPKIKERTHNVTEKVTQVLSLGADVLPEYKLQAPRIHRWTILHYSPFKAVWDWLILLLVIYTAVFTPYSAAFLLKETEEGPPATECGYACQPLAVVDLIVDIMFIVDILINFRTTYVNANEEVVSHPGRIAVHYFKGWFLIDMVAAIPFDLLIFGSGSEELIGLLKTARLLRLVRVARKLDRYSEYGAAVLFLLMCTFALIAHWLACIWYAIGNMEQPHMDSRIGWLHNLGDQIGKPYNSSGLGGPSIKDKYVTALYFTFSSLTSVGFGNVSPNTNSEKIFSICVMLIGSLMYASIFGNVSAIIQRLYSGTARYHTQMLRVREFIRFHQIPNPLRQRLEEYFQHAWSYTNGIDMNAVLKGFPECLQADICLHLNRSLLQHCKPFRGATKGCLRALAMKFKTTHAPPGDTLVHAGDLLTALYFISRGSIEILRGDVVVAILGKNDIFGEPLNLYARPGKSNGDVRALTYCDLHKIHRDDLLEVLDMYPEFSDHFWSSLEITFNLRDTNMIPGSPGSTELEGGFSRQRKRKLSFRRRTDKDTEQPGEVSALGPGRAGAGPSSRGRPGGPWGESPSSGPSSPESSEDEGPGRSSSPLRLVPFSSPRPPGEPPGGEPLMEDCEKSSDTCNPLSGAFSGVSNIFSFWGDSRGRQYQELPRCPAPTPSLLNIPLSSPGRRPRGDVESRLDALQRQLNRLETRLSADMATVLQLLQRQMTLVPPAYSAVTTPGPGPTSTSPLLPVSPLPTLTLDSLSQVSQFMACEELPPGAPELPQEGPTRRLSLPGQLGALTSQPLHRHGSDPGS
# [6] = biological target: PDE3A (Homo sapiens, UniProt Q14432); test: safety panel assay, PDE3A; format: biochemical; details: Table 2, PDE3A; accurate to ±20%
# Chain of PDE3A (Q14432 whole entry, species assumed): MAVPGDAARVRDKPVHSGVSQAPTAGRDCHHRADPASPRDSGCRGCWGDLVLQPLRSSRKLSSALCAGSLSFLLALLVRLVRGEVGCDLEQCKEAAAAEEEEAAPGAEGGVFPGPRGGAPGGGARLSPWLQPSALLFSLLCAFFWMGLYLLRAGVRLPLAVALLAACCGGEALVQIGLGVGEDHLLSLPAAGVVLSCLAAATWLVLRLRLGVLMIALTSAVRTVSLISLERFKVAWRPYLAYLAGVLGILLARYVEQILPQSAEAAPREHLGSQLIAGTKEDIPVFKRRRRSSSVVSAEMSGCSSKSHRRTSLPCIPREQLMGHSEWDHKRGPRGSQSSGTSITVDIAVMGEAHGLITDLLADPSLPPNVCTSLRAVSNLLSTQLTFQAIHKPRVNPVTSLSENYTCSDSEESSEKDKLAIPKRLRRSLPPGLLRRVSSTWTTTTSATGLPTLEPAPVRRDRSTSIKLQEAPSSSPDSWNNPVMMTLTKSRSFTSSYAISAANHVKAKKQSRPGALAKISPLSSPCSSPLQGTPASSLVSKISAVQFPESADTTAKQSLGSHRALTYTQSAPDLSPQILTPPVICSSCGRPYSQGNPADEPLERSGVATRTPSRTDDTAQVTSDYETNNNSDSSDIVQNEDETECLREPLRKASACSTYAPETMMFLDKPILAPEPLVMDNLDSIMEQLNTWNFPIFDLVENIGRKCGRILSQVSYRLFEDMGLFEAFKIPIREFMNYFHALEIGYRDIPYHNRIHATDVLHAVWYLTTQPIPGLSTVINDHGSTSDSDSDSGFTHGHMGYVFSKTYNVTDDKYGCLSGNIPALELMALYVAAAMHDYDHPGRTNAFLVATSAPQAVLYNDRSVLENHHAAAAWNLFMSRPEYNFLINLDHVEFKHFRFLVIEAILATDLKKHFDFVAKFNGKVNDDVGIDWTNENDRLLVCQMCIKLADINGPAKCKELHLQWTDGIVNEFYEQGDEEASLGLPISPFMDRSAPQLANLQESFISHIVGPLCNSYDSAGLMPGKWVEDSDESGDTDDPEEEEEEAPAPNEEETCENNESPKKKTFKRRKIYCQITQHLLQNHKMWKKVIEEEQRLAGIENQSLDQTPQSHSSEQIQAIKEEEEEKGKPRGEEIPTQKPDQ
# [7] = biological target: PDE4D (Homo sapiens, UniProt Q08499); test: in vitro assay, PDE4D; format: biochemical
# Chain of PDE4D (Q08499 whole entry): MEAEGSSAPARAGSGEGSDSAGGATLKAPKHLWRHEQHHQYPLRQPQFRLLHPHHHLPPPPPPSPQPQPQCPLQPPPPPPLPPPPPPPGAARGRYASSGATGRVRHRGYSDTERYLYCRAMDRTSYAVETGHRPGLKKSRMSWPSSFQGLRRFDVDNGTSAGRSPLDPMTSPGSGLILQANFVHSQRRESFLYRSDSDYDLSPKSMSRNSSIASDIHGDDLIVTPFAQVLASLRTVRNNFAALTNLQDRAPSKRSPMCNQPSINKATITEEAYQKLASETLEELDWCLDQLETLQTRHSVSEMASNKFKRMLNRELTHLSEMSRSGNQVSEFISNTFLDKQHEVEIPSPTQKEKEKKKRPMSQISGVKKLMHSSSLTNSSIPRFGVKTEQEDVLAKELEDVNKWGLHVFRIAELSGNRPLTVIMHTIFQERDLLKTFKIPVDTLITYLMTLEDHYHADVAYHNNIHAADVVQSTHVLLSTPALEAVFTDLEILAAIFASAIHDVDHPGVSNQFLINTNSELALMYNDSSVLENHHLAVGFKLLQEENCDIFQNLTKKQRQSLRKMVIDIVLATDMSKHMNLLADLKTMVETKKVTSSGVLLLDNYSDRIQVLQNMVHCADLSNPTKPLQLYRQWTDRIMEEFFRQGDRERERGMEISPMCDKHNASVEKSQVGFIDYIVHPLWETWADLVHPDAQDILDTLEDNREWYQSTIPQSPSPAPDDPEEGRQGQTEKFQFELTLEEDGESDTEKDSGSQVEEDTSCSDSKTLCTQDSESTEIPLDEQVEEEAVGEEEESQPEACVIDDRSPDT
# [8] = biological target: DRD3 (Homo sapiens, UniProt P35462); details: for Kd: read-out: dopamine D3 receptor Kd
# Chain of DRD3 (P35462 whole entry, species assumed): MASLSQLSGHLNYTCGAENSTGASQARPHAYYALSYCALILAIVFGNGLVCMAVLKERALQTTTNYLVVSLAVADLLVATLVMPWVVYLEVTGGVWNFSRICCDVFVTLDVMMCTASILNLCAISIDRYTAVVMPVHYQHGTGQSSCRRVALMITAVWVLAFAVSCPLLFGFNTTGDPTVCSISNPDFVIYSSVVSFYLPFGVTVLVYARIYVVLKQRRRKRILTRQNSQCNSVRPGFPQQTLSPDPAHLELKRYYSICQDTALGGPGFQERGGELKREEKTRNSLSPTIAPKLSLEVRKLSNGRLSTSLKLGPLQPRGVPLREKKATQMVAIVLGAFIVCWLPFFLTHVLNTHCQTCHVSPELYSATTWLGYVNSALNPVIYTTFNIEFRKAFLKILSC
# [9] = tested on: rat brain; details: prenatal treatment, rat brain ref 51; cited from earlier work
# [10] = tested on: rats; details: cited from earlier work
# [11] = biological target: T3, PTGS2 (Homo sapiens, UniProt P35354); test: safety panel assay, PTGS2; format: biochemical; details: Table 2, PTGS2; accurate to ±20%
# T3 sequence (P35354 18-604): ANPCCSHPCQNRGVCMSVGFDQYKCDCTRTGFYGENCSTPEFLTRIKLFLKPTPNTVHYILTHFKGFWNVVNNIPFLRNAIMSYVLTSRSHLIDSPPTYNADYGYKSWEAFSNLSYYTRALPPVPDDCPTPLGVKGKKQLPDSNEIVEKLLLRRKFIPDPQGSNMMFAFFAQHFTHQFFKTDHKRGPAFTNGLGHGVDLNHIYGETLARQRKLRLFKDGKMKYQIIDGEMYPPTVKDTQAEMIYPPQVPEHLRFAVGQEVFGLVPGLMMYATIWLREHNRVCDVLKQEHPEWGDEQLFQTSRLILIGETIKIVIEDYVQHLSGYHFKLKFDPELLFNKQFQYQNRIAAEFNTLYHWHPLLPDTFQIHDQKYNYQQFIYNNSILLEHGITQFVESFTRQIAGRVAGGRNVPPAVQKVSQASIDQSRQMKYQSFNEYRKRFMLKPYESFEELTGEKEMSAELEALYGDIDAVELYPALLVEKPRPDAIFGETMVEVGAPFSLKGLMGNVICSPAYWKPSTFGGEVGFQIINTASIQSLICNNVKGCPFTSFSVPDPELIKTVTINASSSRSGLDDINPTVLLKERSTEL
# [12] = tested on: BioMAP Diversity PLUS panel; test: BioMAP Diversity PLUS panel of cell-based systems
# [13] = biological target: T4, SLCO2B1 (Homo sapiens, UniProt O94956); test: in vitro transporter inhibition, SLCO2B1; format: biochemical; details: Table 1, predicted target SLCO2B1
# T4 sequence (O94956 1-709): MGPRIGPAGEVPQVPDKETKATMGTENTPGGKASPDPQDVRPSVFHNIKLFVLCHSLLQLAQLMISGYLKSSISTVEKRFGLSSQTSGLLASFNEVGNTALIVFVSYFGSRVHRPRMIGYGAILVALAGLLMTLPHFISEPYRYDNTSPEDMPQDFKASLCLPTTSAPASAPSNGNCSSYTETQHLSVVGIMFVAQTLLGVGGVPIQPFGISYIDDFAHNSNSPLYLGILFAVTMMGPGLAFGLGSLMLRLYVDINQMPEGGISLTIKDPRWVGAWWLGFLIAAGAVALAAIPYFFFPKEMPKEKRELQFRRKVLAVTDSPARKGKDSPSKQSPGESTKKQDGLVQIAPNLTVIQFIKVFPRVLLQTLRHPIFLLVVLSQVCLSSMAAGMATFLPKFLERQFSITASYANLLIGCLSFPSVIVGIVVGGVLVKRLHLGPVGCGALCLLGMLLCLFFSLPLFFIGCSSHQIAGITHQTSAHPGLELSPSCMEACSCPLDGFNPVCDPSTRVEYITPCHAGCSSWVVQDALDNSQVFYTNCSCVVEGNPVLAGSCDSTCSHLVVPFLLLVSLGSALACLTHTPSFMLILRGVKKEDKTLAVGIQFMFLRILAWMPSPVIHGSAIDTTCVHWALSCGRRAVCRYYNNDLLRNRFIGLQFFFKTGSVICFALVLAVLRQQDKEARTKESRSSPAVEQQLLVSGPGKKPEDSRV
# [14] = rat, in vivo, cited from earlier work
# [15] = Madin-Darby canine kidney permeability assay
# [16] = rat, in vivo, 1 mg/kg
# [17] = biological target: T5, SLCO1B1 (Homo sapiens, UniProt Q9Y6L6); test: in vitro transporter assay, SLCO1B1
# T5 sequence (Q9Y6L6 1-691): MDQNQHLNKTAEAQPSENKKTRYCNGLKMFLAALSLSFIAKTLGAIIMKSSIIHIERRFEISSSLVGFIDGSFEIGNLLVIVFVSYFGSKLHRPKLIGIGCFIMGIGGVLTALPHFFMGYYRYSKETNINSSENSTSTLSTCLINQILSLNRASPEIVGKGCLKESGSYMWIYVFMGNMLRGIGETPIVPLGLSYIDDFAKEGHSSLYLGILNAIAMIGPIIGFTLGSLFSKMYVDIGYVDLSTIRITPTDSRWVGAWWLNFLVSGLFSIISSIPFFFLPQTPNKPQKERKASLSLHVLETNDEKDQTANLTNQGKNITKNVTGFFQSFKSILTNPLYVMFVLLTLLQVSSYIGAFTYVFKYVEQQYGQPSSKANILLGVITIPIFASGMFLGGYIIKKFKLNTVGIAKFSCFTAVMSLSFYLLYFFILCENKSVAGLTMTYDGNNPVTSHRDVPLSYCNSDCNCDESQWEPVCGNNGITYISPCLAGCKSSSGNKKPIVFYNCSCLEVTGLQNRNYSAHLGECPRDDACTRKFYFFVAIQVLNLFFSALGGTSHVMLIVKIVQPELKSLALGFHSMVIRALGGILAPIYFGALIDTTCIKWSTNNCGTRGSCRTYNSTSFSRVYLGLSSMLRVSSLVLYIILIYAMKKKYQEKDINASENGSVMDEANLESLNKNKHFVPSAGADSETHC
# [18] = Pharmacokinetics in rats after i.v. and oral administration
# [19] = human adults after repeated vaccination ref 43; cited from earlier work
# [20] = biological target: DRD5 (Homo sapiens, UniProt P21918); test: in vitro assay, DRD5; format: binding
# Chain of DRD5 (P21918 whole entry, species assumed): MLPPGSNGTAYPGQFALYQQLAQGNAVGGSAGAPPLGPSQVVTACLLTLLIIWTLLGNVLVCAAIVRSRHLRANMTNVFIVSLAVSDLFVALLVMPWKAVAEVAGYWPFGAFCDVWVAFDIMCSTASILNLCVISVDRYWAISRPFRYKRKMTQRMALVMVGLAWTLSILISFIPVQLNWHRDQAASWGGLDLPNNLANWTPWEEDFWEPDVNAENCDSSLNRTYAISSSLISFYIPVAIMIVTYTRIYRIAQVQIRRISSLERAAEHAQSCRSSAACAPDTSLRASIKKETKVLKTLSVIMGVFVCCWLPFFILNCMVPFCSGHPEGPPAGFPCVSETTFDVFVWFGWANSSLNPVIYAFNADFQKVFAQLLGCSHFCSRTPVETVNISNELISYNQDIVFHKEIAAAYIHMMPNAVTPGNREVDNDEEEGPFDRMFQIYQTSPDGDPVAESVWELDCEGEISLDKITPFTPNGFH
structure (smiles),measurement,setting,value
Cc1ccc(C(C)C)c(O)c1 [Thymol],Ki/IC50 Or EC50,[1],14 µM
same,Ki/IC50 Or EC50,[2],26 µM
same,Ki/IC50 Or EC50,[3],28 µM
same,Ki/IC50 Or EC50,[4],25 µM
CNC1(c2ccccc2Cl)CCCCC1=O (stereo not drawn) [ketamine],hERG activity,[5],no detectable hERG activity
CCCCCCCCCCCCCCCC(=O)O [Palmitic acid],Ki/IC50 Or EC50,[6],4.1 µM
same,Ki/IC50 Or EC50,"[7]; Table 2, PDE4D, accurate to ±20%",6.6 µM
same,Ki/IC50 Or EC50,[4],4.4 µM
CCOC(=O)c1ccc(O)cc1 [Ethylparaben],Ki/IC50 Or EC50,[4],22 µM
C[CH2][Hg][S]c1ccccc1C(=O)[O-].[Na+] [Thimerosal],IC50,"[8]; Table 4, target DRD3",0.32 µM
same,Kd,[8],0.32 µM
same,effect on serotonergic and dopaminergic systems,[9],impaired the serotonergic and dopaminergic systems in the rat brain
same,striatal D2 receptor density (immunohistochemistry),[10]; rats ref 48,decline in striatal D2 receptor density
same,behavioral effects,[10]; rats treated postnatally ref 48,"impaired locomotor function, increased anxiety/neophobia in the open field, and alterations in social behavior"
N[C@@H](CS)C(=O)O [Cysteine],Ki/IC50 Or EC50,[11],4.7 µM
CC(O)CO (stereo not drawn) [propylene glycol],activity in the BioMAP cell-based systems,"[12]; 1.1, 3.3, 10, 30 μM",no measurable activity
CCCCC(CC)COC(=O)CC(C(=O)OCC(CC)CCCC)S(=O)(=O)O (stereo not drawn) [Docusate sodium],Ki/IC50,[13],2.3 µM
O=S(=O)([O-])c1ccc(N=Nc2c(O)ccc3ccccc23)cc1.[Na+] [D&C Orange No. 4],Ki/IC50,[13],1.9 µM
CCOC(=O)c1ccccc1C(=O)OCC [Diethyl phthalate],i.v. AUC 0–24 (d.n.),[14]; iv,553 ^† nM-hour
same,t1/2 from i.v. dose,[14]; iv,1.0 ^† hours
same,Cmax,[14]; po,253 nM
same,Oral AUC 0–last (d.n.),[14]; po,350 ^† nM-hour
same,TNF-α modulation,"[12]; BioMAP, 1.1 to 30 μM",modulated tumor necrosis factor–α (TNF-α) in a dose-dependent manner
same,Ki/IC50,"[7]; Table 1, PDE4D tested in place of SEA-predicted PDE4B and PDE1",8.5 µM
Cc1ccc(N=Nc2c([O-])c(C(=O)O)cc3ccccc23)c(S(=O)(=O)[O-])c1.[Na+].[Na+] [D&C Red No. 6],MDCK-LE Papp,"[15]; apparent permeability, Madin-Darby canine kidney permeability assay",<1.2 ×10⁻⁶ cm/s
same,%F,[16],2.5%
same,IC50,"[17]; Table 4, target SLCO1B1",3.1 µM
COc1cc(S(=O)(=O)[O-])c(C)cc1N=Nc1c(O)ccc2cc(S(=O)(=O)[O-])ccc12.[Na+].[Na+] [FD&C Red No. 40],Ki/IC50,[13],4.7 µM
O=S(=O)([O-])c1ccc(N=Nc2c(O)ccc3cc(S(=O)(=O)[O-])ccc23)cc1.[Na+].[Na+] [FD&C Yellow No. 6],Ki/IC50,[13],74 µM
CCCCCCCCCCCCCCCC[n+]1ccccc1 [Cetylpyridinium chloride],Papp,"[15]; dog, MDCK",< 0.5 ×10⁻⁶ cm/s
same,bioavailability,"[18]; rat, in vivo, 1 mg/kg",5.4%
same,half-life,"[18]; rat, in vivo, iv, 1 mg/kg",9.7 h
same,Cmax,"[18]; rat, in vivo, po, 1 mg/kg",260 nM
same,i.v. AUC 0–24 (d.n.),"[18]; rats, i.v. 1 mg/kg, dose normalized","15,972 nM-hour"
same,Oral AUC 0–last (d.n.),"[18]; rats, oral 1 mg/kg, dose normalized","4,052 nM-hour"
C[CH2][Hg] [Ethyl mercury],median blood concentration of ethyl mercury,[19],0.14 ng/mL
same,Ki/IC50 Or EC50,"[20]; Table 2, DRD5, accurate to ±20%",0.15 µM
same,Kd,[20]; read-out: dopamine D5 receptor Kd,~0.15 µM
same,Ki/IC50 Or EC50,"[8]; Table 2, DRD3, accurate to ±20%",0.21 µM
same,Kd,[8],~0.21 µM
same,Kd,[8]; listed as major metabolite,0.21 µM
CC1(C)[C@@H](O[C@H]2O[C@H](C(=O)O)[C@@H](O)[C@H](O)[C@H]2O[C@@H]2O[C@H](C(=O)O)[C@@H](O)[C@H](O)[C@H]2O)CC[C@]2(C)[C@H]3C(=O)C=C4[C@@H]5C[C@@](C)(C(=O)O)CC[C@]5(C)CC[C@@]4(C)[C@]3(C)CC[C@@H]12 [Glycyrrhizin],Ki/IC50,"[17]; Table 1, predicted target SLCO1B1",13 µM

# From paper PMC7960226 (Science (New York, N.Y.), 2020)
